Source: patent US20240208992A1, “MACROCYCLES AS CFTR MODULATORS” (Idorsia Pharmaceuticals Ltd, priority 2021, published 2024)

Target: human F508del-CFTR (Homo sapiens, UniProt P13569, DEL508-508)
Assay: F508del-CFTR cell surface expression (corrector activity), DiscoveRx ß-galactosidase complementation chemiluminescence assay in recombinant U2OS cell line;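 note: U2OS cells co-expressing ProLink-tagged F508del-CFTR and a membrane-anchored enzyme acceptor, where more surface CFTR restores β-galactosidase activity measured by chemiluminescence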
Conditions: for EC50: EC50, F508del-CFTR cell surface expression, U2OS cells, 16h compound incubation, geomean values; for Emax: U2OS, in relation to Emax of corrector lumacaftor (=100%), arithmetic mean values

Chain of human F508del-CFTR (P13569 with tags, fused parts or gaps DEL508-508): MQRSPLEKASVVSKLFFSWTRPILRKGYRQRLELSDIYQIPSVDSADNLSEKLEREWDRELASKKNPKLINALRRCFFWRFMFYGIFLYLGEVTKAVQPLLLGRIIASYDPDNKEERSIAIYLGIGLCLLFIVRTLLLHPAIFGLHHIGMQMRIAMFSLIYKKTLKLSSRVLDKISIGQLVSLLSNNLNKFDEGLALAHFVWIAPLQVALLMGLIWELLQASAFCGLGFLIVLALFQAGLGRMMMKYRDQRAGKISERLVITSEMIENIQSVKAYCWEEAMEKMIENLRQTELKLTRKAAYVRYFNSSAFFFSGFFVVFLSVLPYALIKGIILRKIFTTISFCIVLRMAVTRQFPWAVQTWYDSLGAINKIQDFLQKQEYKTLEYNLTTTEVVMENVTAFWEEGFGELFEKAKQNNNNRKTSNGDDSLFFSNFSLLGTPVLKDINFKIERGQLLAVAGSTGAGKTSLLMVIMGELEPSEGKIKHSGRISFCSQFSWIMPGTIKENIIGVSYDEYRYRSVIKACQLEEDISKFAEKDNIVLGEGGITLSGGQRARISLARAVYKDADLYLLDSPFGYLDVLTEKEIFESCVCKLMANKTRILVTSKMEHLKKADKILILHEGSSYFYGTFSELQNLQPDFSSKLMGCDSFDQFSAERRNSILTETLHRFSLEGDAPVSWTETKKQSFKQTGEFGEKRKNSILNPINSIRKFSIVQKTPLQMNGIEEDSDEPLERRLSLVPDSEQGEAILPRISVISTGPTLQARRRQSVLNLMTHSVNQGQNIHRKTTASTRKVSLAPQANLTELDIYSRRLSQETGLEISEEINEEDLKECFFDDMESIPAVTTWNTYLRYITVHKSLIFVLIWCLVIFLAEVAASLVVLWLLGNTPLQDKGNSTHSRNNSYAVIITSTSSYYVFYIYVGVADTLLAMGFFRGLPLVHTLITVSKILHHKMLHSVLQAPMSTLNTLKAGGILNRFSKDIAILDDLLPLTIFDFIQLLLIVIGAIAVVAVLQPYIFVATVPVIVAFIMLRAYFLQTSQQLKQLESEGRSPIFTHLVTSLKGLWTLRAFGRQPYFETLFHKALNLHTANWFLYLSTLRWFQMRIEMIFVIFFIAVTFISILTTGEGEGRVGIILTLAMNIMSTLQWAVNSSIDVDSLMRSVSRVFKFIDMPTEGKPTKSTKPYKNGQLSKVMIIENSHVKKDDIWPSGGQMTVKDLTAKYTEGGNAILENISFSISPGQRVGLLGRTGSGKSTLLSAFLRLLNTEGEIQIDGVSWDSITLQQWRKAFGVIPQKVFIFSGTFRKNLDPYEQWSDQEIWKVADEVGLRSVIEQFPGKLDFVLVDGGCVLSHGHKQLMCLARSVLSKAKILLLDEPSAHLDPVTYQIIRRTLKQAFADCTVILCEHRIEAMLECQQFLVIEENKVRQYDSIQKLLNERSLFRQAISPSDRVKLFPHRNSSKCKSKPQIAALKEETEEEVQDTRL

COc1cccc(CCNC(=O)[C@@H]2CC(=O)N(C)[C@@H](CC(C)C)C(=O)N3CCN(C4CC4)C[C@@H]3C(=O)N[C@H](Cc3ccccc3)COc3ccc4nc(C)oc4c3C(=O)N2)c1 [Example 417, (8S,12S,18aR,21R)-21-benzyl-17-cyclopropyl-12-isobutyl-N-(3-methoxyphenethyl)-4,11-dimethyl-6,10,13,19-tetraoxo-6,7,8,9,10,11,12,13,16,17,18,18a,19,20,21,22-hexadecahydro-15H-oxazolo[4′,5′:5,6]benzo[1,2-p]pyrazino[2,1-f][1]oxa[4,7,10,14]tetraazacycloheptadecine-8-carboxamide]
EC50: 437 nM | Emax: 343%

CCOc1cccc(CCNC(=O)[C@@H]2CC(=O)N(C)[C@@H](CC(C)C)C(=O)N3CCN(C4CC4)C[C@@H]3C(=O)N[C@H](Cc3ccccc3)COc3ccc4nc(C)oc4c3C(=O)N2)c1 [Example 418, (8S,12S,18aR,21R)-21-benzyl-17-cyclopropyl-N-(3-ethoxyphenethyl)-12-isobutyl-4,11-dimethyl-6,10,13,19-tetraoxo-6,7,8,9,10,11,12,13,16,17,18,18a,19,20,21,22-hexadecahydro-15H-oxazolo[4′,5′:5,6]benzo[1,2-p]pyrazino[2,1-f][1]oxa[4,7,10,14]tetraazacycloheptadecine-8-carboxamide]
EC50: 276 nM | Emax: 259%

Cc1nc2ccc3c(c2o1)C(=O)N[C@H](C(=O)NCCc1cccc(OC(F)F)c1)CC(=O)N(C)[C@@H](CC(C)C)C(=O)N1CCN(C2CC2)C[C@@H]1C(=O)N[C@H](Cc1ccccc1)CO3 [Example 419, (8S,12S,18aR,21R)-21-benzyl-17-cyclopropyl-N-(3-(difluoromethoxy)phenethyl)-12-isobutyl-4,11-dimethyl-6,10,13,19-tetraoxo-6,7,8,9,10,11,12,13,16,17,18,18a,19,20,21,22-hexadecahydro-15H-oxazolo[4′,5′:5,6]benzo[1,2-p]pyrazino[2,1-f][1]oxa[4,7,10,14]tetraazacycloheptadecine-8-carboxamide]
EC50: 358 nM | Emax: 243%

Cc1nc2ccc3c(c2o1)C(=O)N[C@H](C(=O)NCCc1nc2c(s1)CCC2)CC(=O)N(C)[C@@H](CC(C)C)C(=O)N1CCN(C2CC2)C[C@@H]1C(=O)N[C@H](Cc1ccccc1)CO3 [Example 420, (8S,12S,18aR,21R)-21-benzyl-17-cyclopropyl-N-(2-(5,6-dihydro-4H-cyclopenta[d]thiazol-2-yl)ethyl)-12-isobutyl-4,11-dimethyl-6,10,13,19-tetraoxo-6,7,8,9,10,11,12,13,16,17,18,18a,19,20,21,22-hexadecahydro-15H-oxazolo[4′,5′:5,6]benzo[1,2-p]pyrazino[2,1-f][1]oxa[4,7,10,14]tetraazacycloheptadecine-8-carboxamide]
EC50: 437 nM | Emax: 231%

Cc1nc2ccc3c(c2o1)C(=O)N[C@H](C(=O)NCCc1ccc2c(c1)OCCO2)CC(=O)N(C)[C@@H](CC(C)C)C(=O)N1CCN(C2CC2)C[C@@H]1C(=O)N[C@H](Cc1ccccc1)CO3 [Example 421, (8S,12S,18aR,21R)-21-benzyl-17-cyclopropyl-N-(2-(2,3-dihydrobenzo[b][1,4]dioxin-6-yl)ethyl)-12-isobutyl-4,11-dimethyl-6,10,13,19-tetraoxo-6,7,8,9,10,11,12,13,16,17,18,18a,19,20,21,22-hexadecahydro-15H-oxazolo[4′,5′:5,6]benzo[1,2-p]pyrazino[2,1-f][1]oxa[4,7,10,14]tetraazacycloheptadecine-8-carboxamide]
EC50: 391 nM | Emax: 320%

Cc1nc2ccc3c(c2o1)C(=O)N[C@H](C(=O)NCCc1cccc(C(C)(F)F)c1)CC(=O)N(C)[C@@H](CC(C)C)C(=O)N(CCC1CCCCC1)CC(=O)N[C@H](Cc1ccccc1)CO3 [Example 422, (8R,14S,18S)-8-benzyl-12-(2-cyclohexylethyl)-N-(3-(1,1-difluoroethyl)phenethyl)-14-isobutyl-2,15-dimethyl-10,13,16,20-tetraoxo-7,8,9,10,11,12,13,14,15,16,17,18,19,20-tetradecahydrooxazolo[4′,5′:5,6]benzo[1,2-p][1]oxa[4,7,10,14]tetraazacycloheptadecine-18-carboxamide]
EC50: 192 nM | Emax: 193%

COc1cccc(CCNC(=O)[C@@H]2CC(=O)N(C)[C@@H](CC(C)C)C(=O)N3CCCC[C@@H]3C(=O)N[C@H](Cc3ccccc3)COc3ccc4c(cnn4C)c3C(=O)N2)c1 [Example 423, (8S,12S,18aR,21R)-21-benzyl-12-isobutyl-N-(3-methoxyphenethyl)-3,11-dimethyl-6,10,13,19-tetraoxo-6,7,8,9,10,11,12,13,16,17,18,18a,19,20,21,22-hexadecahydro-3H,15H-pyrido[2′,1′:6,7][1]oxa[4,7,10,14]tetraazacycloheptadecino[16,17-e]indazole-8-carboxamide]
EC50: 278 nM | Emax: 239%

COc1cccc(CCNC(=O)[C@@H]2CC(=O)N(C)[C@@H](CC(C)C)C(=O)N3CCOC[C@@H]3C(=O)N[C@H](Cc3ccccc3)COc3ccc4c(cnn4C)c3C(=O)N2)c1 [Example 424, (8S,12S,18aR,21R)-21-benzyl-12-isobutyl-N-(3-methoxyphenethyl)-3,11-dimethyl-6,10,13,19-tetraoxo-6,7,8,9,10,11,12,13,15,16,18,18a,19,20,21,22-hexadecahydro-3H-[1,4]oxazino[3′,4′:6,7][1]oxa[4,7,10,14]tetraazacycloheptadecino[16,17-e]indazole-8-carboxamide]
EC50: 831 nM | Emax: 235%

COc1cccc(CCNC(=O)[C@@H]2CC(=O)N(C)[C@@H](CC(C)C)C(=O)N3CCN(CC4CC4)C[C@@H]3C(=O)N[C@H](Cc3ccccc3)COc3ccc4nc(C)oc4c3C(=O)N2)c1 [Example 425, (8S,12S,18aR,21R)-21-benzyl-17-(cyclopropylmethyl)-12-isobutyl-N-(3-methoxyphenethyl)-4,11-dimethyl-6,10,13,19-tetraoxo-6,7,8,9,10,11,12,13,16,17,18,18a,19,20,21,22-hexadecahydro-15H-oxazolo[4′,5′:5,6]benzo[1,2-p]pyrazino[2,1-f][1]oxa[4,7,10,14]tetraazacycloheptadecine-8-carboxamide]
EC50: 348 nM | Emax: 364%

Cc1nc2ccc3c(c2o1)C(=O)N[C@H](C(=O)NCCc1cccc(OC(F)F)c1)CC(=O)N(C)[C@@H](CC(C)C)C(=O)N1CCN(CC2CC2)C[C@@H]1C(=O)N[C@H](Cc1ccccc1)CO3 [Example 426, (8S,12S,18aR,21R)-21-benzyl-17-(cyclopropylmethyl)-N-(3-(difluoromethoxy)phenethyl)-12-isobutyl-4,11-dimethyl-6,10,13,19-tetraoxo-6,7,8,9,10,11,12,13,16,17,18,18a,19,20,21,22-hexadecahydro-15H-oxazolo[4′,5′:5,6]benzo[1,2-p]pyrazino[2,1-f][1]oxa[4,7,10,14]tetraazacycloheptadecine-8-carboxamide]
EC50: 269 nM | Emax: 217%

CCOc1cccc(CCNC(=O)[C@@H]2CC(=O)N(C)[C@@H](CC(C)C)C(=O)N3CCN(CC4CC4)C[C@@H]3C(=O)N[C@H](Cc3ccccc3)COc3ccc4nc(C)oc4c3C(=O)N2)c1 [Example 427, (8S,12S,18aR,21R)-21-benzyl-17-(cyclopropylmethyl)-N-(3-ethoxyphenethyl)-12-isobutyl-4,11-dimethyl-6,10,13,19-tetraoxo-6,7,8,9,10,11,12,13,16,17,18,18a,19,20,21,22-hexadecahydro-15H-oxazolo[4′,5′:5,6]benzo[1,2-p]pyrazino[2,1-f][1]oxa[4,7,10,14]tetraazacycloheptadecine-8-carboxamide]
EC50: 248 nM | Emax: 274%

Cc1nc2ccc3c(c2o1)C(=O)N[C@H](C(=O)NCCc1ccc(-n2nccn2)cc1)CC(=O)N(C)[C@@H](CC(C)C)C(=O)N1CCN(CC2CC2)C[C@@H]1C(=O)N[C@H](Cc1ccccc1)CO3 [Example 428, (8S,12S,18aR,21R)-N-(4-(2H-1,2,3-triazol-2-yl)phenethyl)-21-benzyl-17-(cyclopropylmethyl)-12-isobutyl-4,11-dimethyl-6,10,13,19-tetraoxo-6,7,8,9,10,11,12,13,16,17,18,18a,19,20,21,22-hexadecahydro-15H-oxazolo[4′,5′:5,6]benzo[1,2-p]pyrazino[2,1-f][1]oxa[4,7,10,14]tetraazacycloheptadecine-8-carboxamide]
EC50: 614 nM | Emax: 218%

Cc1cc(CCNC(=O)[C@@H]2CC(=O)N(C)[C@@H](CC(C)C)C(=O)N3CCCC[C@@H]3C(=O)N[C@H](Cc3ccccc3)COc3ccc4c(cnn4C)c3C(=O)N2)on1 [Example 429, (8S,12S,18aR,21R)-21-benzyl-12-isobutyl-3,11-dimethyl-N-(2-(3-methylisoxazol-5-yl)ethyl)-6,10,13,19-tetraoxo-6,7,8,9,10,11,12,13,16,17,18,18a,19,20,21,22-hexadecahydro-3H,15H-pyrido[2′,11:6,7][1]oxa[4,7,10,14]tetraazacycloheptadecino[16,17-e]indazole-8-carboxamide]
EC50: 606 nM | Emax: 224%

CC(C)C[C@H]1C(=O)N(C)CC(=O)N[C@H](Cc2ccccc2)COc2nc3ccccn3c2C(=O)N[C@H](C(=O)NCCc2ccc3c(c2)OCO3)CC(=O)N1C [Example 430, (3R,9S,13S)-N-(2-(benzo[d][1,3]dioxol-5-yl)ethyl)-3-benzyl-9-isobutyl-7,10-dimethyl-5,8,11,15-tetraoxo-2,3,4,5,6,7,8,9,10,11,12,13,14,15-tetradecahydropyrido[2′,11:2,3]imidazo[4,5-p][1]oxa[4,7,10,14]tetraazacycloheptadecine-13-carboxamide]
EC50: 964 nM | Emax: 194%

COCCCN1C(=O)[C@H](CC(C)C)N(C)C(=O)C[C@@H](C(=O)NCCc2cccc(OC)c2)NC(=O)c2c(ccc3ccccc23)OC[C@@H](Cc2ccccc2)NC(=O)[C@H]1C [Example 431, (3S,7S,10R,13R)-13-benzyl-7-isobutyl-N-(3-methoxyphenethyl)-9-(3-methoxypropyl)-6,10-dimethyl-1,5,8,11-tetraoxo-1,2,3,4,5,6,7,8,9,10,11,12,13,14-tetradecahydronaphtho[1,2-p][1]oxa[4,7,10,14]tetraazacycloheptadecine-3-carboxamide]
EC50: 208 nM | Emax: 281%
